Here are results for 2 molecules from patent US20220241349A1, “METHOD FOR PRODUCING MARINE ALGAE-DERIVED AGAROTRIOSE, AND USE THEREOF AS PREBIOTIC” (Korea University Research and Business Foundation, priority 2017, published 2022).

For series [1], the system named is Bifidobacterium longum subsp. infantis ATCC 15697 strain. Put plainly: Cell growth with each purified sugar as single carbon source (Bioscreen C). It counts as cell-based. The note with it: 5 g/L of each purified sugar, 37° C. As to the method: In this case, as a culture composition, 10 g/L of BactoPeptone, 5 g/L of a yeast extract, 2 g/L of K2HPO4 anhydride, 5 g/L of Na acetate anhydride, 2 g/L of NH4 citrate tribasic, 0.2 g/L of Mg sulfate heptahydrate, 0.05 g/L of Mn sulfate, 1 mL/L of Tween 80 (polysorbate 80), 0.5 g/L of cysteine, and 5 g/L of each purified sugar were used and cultured at 37° C.

In series [2] the test system is Bifidobacterium longum subsp. infantis ATCC 17930. Nature of the series: Fermentation ability of agarotriose as single carbon source. It counts as cell-based. As for the experimental part: (§1) In order to confirm whether agarotriose also had prebiotic effects on probiotic microorganisms other than a Bifidobacterium longum subsp. infantis ATCC 15697 strain, Bifidobacterium longum subsp. infantis ATCC 17930, Bifidobacterium longum subsp. infantis ATCC 15702, B. bifidum DSM 20082, and B. kashiwanohense DSM 21854 were cultured under agarotriose single carbon source conditions.

For series [3], the system named is Bifidobacterium longum subsp. infantis ATCC 15702. The series is described as above. Type of series: cell-based. As to the method: as §1
The subject of series [4] is B. kashiwanohense DSM 21854. The description is as above. Type of series: cell-based. As for the experimental part:
as §1

For the next series, the system named is B. bifidum DSM 20082. Described as above. Type of series: cell-based. As to the method: as §1
For series [5], the system named is crude enzyme solution of a Bifidobacterium longum subsp. infantis ATCC 15697 strain. Put plainly: Degradation experiment using crude enzyme solution. The settings on record: 2 mg/mL crude enzyme, 2 mg/mL substrate, 30° C., pH 7.0, 2 hours. Type of series: biochemical. As to the method:
In order to confirm the metabolic pathway of agarotriose, an experiment was performed on a crude enzyme solution of a Bifidobacterium longum subsp. infantis ATCC 15697 strain. For this purpose, cells and the medium were separated by centrifugation (14,000 rpm, 5 minutes, 4° C.) of a culture solution of Bifidobacterium longum subsp. infantis ATCC 15697 cultured under an agarotriose condition. An extracellular crude enzyme was obtained by ammonium sulfate precipitation of a supernatant. Further, for a cell-free extract including an intracellular crude enzyme, a supernatant crude enzyme was obtained by re-suspending cells in a 20 mM Tris-HCl buffer, and then lysing the cells by sonication, and centrifuging the lysate. During the crude enzyme experiment, 2 mg/mL of the crude enzyme and 2 mg/mL of agarotriose as a substrate were used to perform a reaction under an enzymatic reaction condition of 30° C. and 200 rpm in a 20 mM Tris-HCl buffer (pH 7.0) for 2 hours.

A short description of series [6]: Stability test against artificial gastric juice. It counts as in vitro ADME. The note with it: 37° C., 3 hours, TLC and HPLC. From the text:
In order to test whether agarotriose could reach the intestines without being degraded, agarotriose was reacted in artificial gastric juice for each time, and then it was confirmed whether agarotriose was degraded, using TLC and HPLC.

Series [7] relates to Bifidobacterium longum subsp. infantis ATCC 15697 strain. Nature of the series: Agarotriose fermentation profile under test tube condition. It counts as cell-based. The settings on record: 5 g/L agarotriose as carbon source. As for the experimental part: In order to monitor fermentation products, a Bifidobacterium longum subsp. Infantis ATCC 15697 strain was cultured under a test tube condition.

Regarding `OC[C@H]1O[C@@H](O[C@H]2[C@H]3OC[C@@H]2O[C@@H](O[C@@H]2[C@@H](O)[C@H](O)O[C@H](CO)[C@@H]2O)[C@H]3O)[C@H](O)[C@@H](O)[C@H]1O` [agarotriose], the “fermentation (cell growth) of the sugar as single carbon source” value in series [1] was “selectively fermented”. For the same molecule, the metabolism of agarotriose result was “metabolized agarotriose and degraded agarotriose into galactose and neoagarobiose” in series [2]; “metabolized agarotriose and degraded agarotriose into galactose and neoagarobiose” in series [3]; “metabolized agarotriose and degraded agarotriose into galactose and neoagarobiose” in series [4]; “metabolized agarotriose and degraded agarotriose into galactose and neoagarobiose” in the series with B. bifidum DSM 20082. The “degradation of the substrate by crude enzyme” value in series [5] is “degrading agarotriose into galactose and neoagarobiose occurred in the cell-free extract”. Moreover, the agarotriose remained in series [6] is not below 80%. Also, in series [7], the “fate of the sugar during fermentation” value was “degraded agarotriose into galactose and neoagarobiose”.

As for `OC[C@H]1OC(O)[C@H](O)[C@@H](O[C@@H]2O[C@H]3CO[C@@H]([C@@H]2O)[C@@H]3O)[C@H]1O` (stereo partly shown) [neoagarobiose, reference compound], the “degradation of the substrate by crude enzyme” value in series [5] was “not exhibited”. Moreover, the “fate of the sugar during fermentation” value in series [7] was “secreted and accumulated outside the cells without being degraded in the cells any more”.
